The values that follow come from patent publication US20090143465A1 (SUMITOMO CHEMICAL COMPANY, LIMITED, priority 2006, published 2009).

In the experiment the test system is Adult houseflies. Put plainly: Housefly knock-down test, oil solution sprayed in cubic chamber (Test Example 1). The experiment is classed as in vivo, houseflies (Musca domestica). Conditions: 0.7 ml of 0.00625% oil solution sprayed into 70 cm cubic chamber; adult houseflies (5 males and 5 females); counted up to 10 minutes after spraying. How it is done:
A solution of 0.00625 part of the present compound (1) in 10 parts of dichloromethane was mixed with 89.99375 parts of deodorized kerosene to obtain a 0.00625% oil solution.
Adult houseflies (5 males and 5 females) were left in a cubic chamber (70 cm at each side). Into the chamber, 0.7 ml of 0.00625% oil solution of the present compound (1) prepared above was sprayed with a spray gun at a pressure of 8.8×10^4 Pa from a small window on the side of the chamber. Then, up to 10 minutes after spraying, the number of knocked-down insects was counted with time. From the results, a time required for knocking down 90% of the tested insects (KT90) was calculated.
In addition, the same test was carried out that 4-propargyl-2,3,5,6-tetrafluorobenzyl (1R)-trans-3-(2-methyl-1-propenyl)-2,2-dimethylcyclopropanecarboxylate represented by the formula: […]
(hereinafter, referred to as the comparative compound (A)), which is the compound described in JP-A 61-207361, was used as a comparative compound (repeated twice).
Turning to `C#CCc1c(F)c(F)c(COC(=O)C2C(/C=C(\C#N)C(=O)OCC)C2(C)C)c(F)c1F` (stereo not shown), the “KT90 (time required for knocking down 90% of the tested insects)” value was 2.0 min.

In the case of `C#CCc1c(F)c(F)c(COC(=O)C2C(/C=C(\C#N)C(=O)OC)C2(C)C)c(F)c1F` (stereo not shown), the “KT90 (time required for knocking down 90% of the tested insects)” value came to 2.6 min.

For `C#CCc1c(F)c(F)c(COC(=O)C2C(/C=C(\C#N)C(=O)OC(C)C)C2(C)C)c(F)c1F` (stereo not shown), the “KT90 (time required for knocking down 90% of the tested insects)” value came out at 5.1 min.

As to `C#CCc1c(F)c(F)c(COC(=O)[C@@H]2[C@@H](C=C(C)C)C2(C)C)c(F)c1F` [Comparative compound (A), 4-propargyl-2,3,5,6-tetrafluorobenzyl (1R)-trans-3-(2-methyl-1-propenyl)-2,2-dimethylcyclopropanecarboxylate, reference compound], the “KT90 (time required for knocking down 90% of the tested insects)” value is >10 min.
